Data on 34 compounds can be found in US10669283B2, “Compound and pharmacologically acceptable salt thereof” (MEIJI SEIKA PHARMA CO., LTD., priority 2016, dated 2020).

SMILES strings stand for the structures.

The subject of the assay is PDE4. The experiment in a line: PDE4 inhibition, scintillation proximity assay (SPA).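 Also: A below 100 nM B 100 to below 1000 nM C 1000 nM or more.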 The format is biochemical. To be noted: scintillation proximity assay (SPA); evaluated as classes A, B, C; read-out: PDE4 Inhibitory Activity (concentration for the inhibition rate of 50%). The protocol:
The PDE4 inhibitory activity was measured using scintillation proximity assay (SPA) as follows. A sample compound dissolved in dimethyl sulfoxide was diluted 1:10 in reaction buffer solution which contained 50 mM of Tris-HCl with pH 7.4, 8.3 mM of MgCl2, 1.7 mM of EGTA, and 3 mg/mL of bovine serum albumin (BSA). Then, 10 μL of the diluted solution was added in a 96-well assay plate. Moreover, 50 μL of PDE4 diluted 1:375 in the reaction buffer solution was added, and then 40 μL of [2,8-^3H]-adenosine-3′,5′-cyclic phosphate triethylammonium salt diluted 1:1000 in the reaction buffer solution was added. The mixture was allowed to stand at room temperature for 120 minutes. Thereafter, […] of RNA binding YSi-SPA beads suspension containing ZnSO4 was added and the mixture was allowed to stand at room temperature for 15 minutes, followed by adsorption of the enzyme reaction product to the beads. After that, the radioactivity was measured using a liquid scintillation counter for a 96-well plate. The mixture without the enzyme preparation added but only the reaction buffer solution added is a blank, and the mixture with the enzyme preparation added and only dimethyl sulfoxide added instead of the sample solution is a control.
For the compound `CON=C(C)c1cc(-c2nccs2)c2oc(N3CC4CCC(C3)N4)nc2c1OC(F)(F)F` (mixture of isomers) [Example 218, (E)-1-(2-(3,8-diazabicyclo[3.2.1]octan-3-yl)-7-(thiazol-2-yl)-4-(trifluoromethoxy)benzo[d]oxazol-5-yl)ethan-1-one O-methyloxime and (Z)-1-(2-(3,8-diazabicyclo[3.2.1]octan-3-yl)-7-(thiazol-2-yl)-4-(trifluoromethoxy)benzo[d]oxazol-5-yl)ethan-1-one O-methyloxime], the IC50 was below 100 nM. Turning to `OC(c1cc(-c2nccs2)c2oc(N3CC4CCC(C3)N4)nc2c1)C(F)(F)F` (racemic) [Example 137, 1-(2-(3,8-Diazabicyclo[3.2.1]octan-3-yl)-7-(thiazol-2-yl)benzo[d]oxazol-5-yl)-2,2,2-trifluoroethan-1-ol], the IC50 was below 100 nM. As to `CC(O)C(F)(F)Oc1ccc(-c2nccs2)c2oc(N3CC4CC(C3)N4)nc12` (racemic) [Example 250, 1-((2-(3,6-Diazabicyclo[3.1.1]heptan-3-yl)-7-(thiazol-2-yl)benzo[d]oxazol-4-yl)oxy)-1,1-difluoropropan-2-ol], the IC50 was below 100 nM. With `FC(F)(F)Oc1c(Cl)cc(-c2nccs2)c2oc(N3CC4CCC(C3)N4)nc12` [Example 1, 2-(3,8-Diazabicyclo[3.2.1]octan-3-yl)-5-chloro-7-(thiazol-2-yl)-4-(trifluoromethoxy)benzo[d]oxazole], the IC50 is below 100 nM. `FC(F)(F)Oc1c(Cl)cc(-c2nccs2)c2oc(N3CC4CCCC(C3)N4)nc12` [Example 2, 2-(3,9-Diazabicyclo[3.3.1]nonan-3-yl)-5-chloro-7-(thiazol-2-yl)-4-(trifluoromethoxy)benzo[d]oxazole]: the IC50 is below 100 nM. Regarding `FC(F)(F)Oc1c(Cl)cc(-c2nccs2)c2oc(N3CC4COCC(C3)N4)nc12` [Example 4, 7-(5-Chloro-7-(thiazol-2-yl)-4-(trifluoromethoxy)benzo [d]oxazol-2-yl)-3-oxa-7,9-diazabicyclo[3.3.1]nonane], the IC50 was below 100 nM. For `FC(F)(F)Oc1c(Cl)cc(-c2ccco2)c2oc(N3CC4CCC(C3)N4)nc12` [Example 6, 2-(3,8-Diazabicyclo[3.2.1]octan-3-yl)-5-chloro-7-(furan-2-yl)-4-(trifluoromethoxy)benzo[d]oxazole], the IC50 is below 100 nM. For the compound `FC(F)(F)Oc1c(Cl)cc(-c2ccccn2)c2oc(N3CC4CCC(C3)N4)nc12` [Example 7, 2-(3,8-Diazabicyclo[3.2.1]octan-3-yl)-5-chloro-7-(pyridin-2-yl)-4-(trifluoromethoxy)benzo[d]oxazole], the IC50 was below 100 nM. With `FC(F)(F)Oc1c(Cl)cc(-c2ncco2)c2oc(N3CC4CCC(C3)N4)nc12` [Example 9, 2-(3,8-Diazabicyclo[3.2.1]octan-3-yl)-5-chloro-7-(oxazol-2-yl)-4-(trifluoromethoxy)benzo[d]oxazole], the IC50 is below 100 nM. For the compound `FC(F)(F)c1c(Cl)cc(-c2ccccn2)c2oc(N3CC4CCC(C3)N4)nc12` [Example 11, 2-(3,8-Diazabicyclo[3.2.1]octan-3-yl)-5-chloro-7-(pyridin-2-yl)-4-(trifluoromethyl)benzo[d]oxazole], the IC50 was below 100 nM. In the case of `FC(F)(F)c1c(Cl)cc(-c2ccccn2)c2oc(N3CC4CC(C3)N4)nc12` [Example 13, 2-(3,6-Diazabicyclo[3.1.1]heptan-3-yl)-5-chloro-7-(pyridin-2-yl)-4-(trifluoromethyl)benzo[d]oxazole], the IC50 was below 100 nM. As to `FC(F)(F)c1c(Cl)cc(-c2ccccn2)c2oc(N3CC4COCC(C3)N4)nc12` [Example 14, 7-(5-Chloro-7-(pyridin-2-yl)-4-(trifluoromethyl)benzo[d]oxazol-2-yl)-3-oxa-7,9-diazabicyclo[3.3.1]nonane], the IC50 fell in the range of 100 to 1000 nM.

`FC(F)(F)c1c(Cl)cc(-n2cccn2)c2oc(N3CC4CCC(C3)N4)nc12` [Example 15, 2-(3,8-Diazabicyclo[3.2.1]octan-3-yl)-5-chloro-7-(1H-pyrazol-1-yl)-4-(trifluoromethyl)benzo[d]oxazole]: the IC50 was below 100 nM. Take `FC(F)(F)c1c(Cl)cc(-n2cccn2)c2oc(N3CC4CCCC(C3)N4)nc12` [Example 16, 2-(3,9-Diazabicyclo[3.3.1]nonan-3-yl)-5-chloro-7-(1H-pyrazol-1-yl)-4-(trifluoromethyl)benzo[d]oxazole]: the IC50 was below 100 nM.

Take `FC(F)(F)c1c(Cl)cc(-n2cccn2)c2oc(N3CC4COCC(C3)N4)nc12` [Example 18, 7-(5-Chloro-7-(1H-pyrazol-1-yl)-4-(trifluoromethyl)benzo[d]oxazol-2-yl)-3-oxa-7,9-diazabicyclo[3.3.1]nonane]: the IC50 is 100 to 1000 nM. As for `FC(F)(F)c1c(Cl)cc(-c2nccs2)c2oc(N3CC4COCC(C3)N4)nc12` [Example 19, 7-(5-Chloro-7-(thiazol-2-yl)-4-(trifluoromethyl)benzo[d]oxazol-2-yl)-3-oxa-7,9-diazabicyclo[3.3.1]nonane], the IC50 is below 100 nM. Consider `FC(F)(F)c1c(Cl)cc(-c2nccs2)c2oc(N3CC4CCC(C3)N4)nc12` [Example 20, 2-(3,8-Diazabicyclo[3.2.1]octan-3-yl)-5-chloro-7-(thiazol-2-yl)-4-(trifluoromethyl)benzo[d]oxazole], for which the IC50 was below 100 nM.

In the case of `CC(C)c1cc(-c2nccs2)c2oc(N3CC4CCC(C3)N4)nc2c1` [Example 21, 2-(3,8-Diazabicyclo[3.2.1]octan-3-yl)-5-isopropyl-7-(thiazol-2-yl)benzo[d]oxazole], the IC50 was below 100 nM. As to `CC(C)c1cc(-c2nccs2)c2oc(N3CC4CC(C3)N4)nc2c1` [Example 22], the IC50 is below 100 nM.

Turning to `CC(C)c1cc(-c2nccs2)c2oc(N3CC4COCC(C3)N4)nc2c1` [Example 23, 7-(5-Isopropyl-7-(thiazol-2-yl)benzo[d]oxazol-2-yl)-3-oxa-7,9-diazabicyclo[3.3.1]nonane], the IC50 lay within 100 to 1000 nM. On to `CC(C)c1cc(-c2nccs2)c2oc(N3CC4CCCC(C3)N4)nc2c1` [Example 24, 2-(3,9-Diazabicyclo[3.3.1]nonan-3-yl)-5-isopropyl-7-(thiazol-2-yl)benzo[d]oxazole], for which the IC50 was below 100 nM. The figure for `Cc1ccc(-c2nccs2)c2oc(N3CC4CCC(C3)N4)nc12` [Example 25, 2-(3,8-Diazabicyclo[3.2.1]octan-3-yl)-4-methyl-7-(thiazol-2-yl)benzo[d]oxazole] is below 100 nM. `Cc1ccc(-c2nccs2)c2oc(N3CC4CC(C3)N4)nc12` [Example 26, 2-(3,6-Diazabicyclo[3.1.1]heptan-3-yl)-4-methyl-7-(thiazol-2-yl)benzo[d]oxazole]: the IC50 was below 100 nM. As to `Cc1ccc(-c2nccs2)c2oc(N3CC4CCCC(C3)N4)nc12` [Example 27, 2-(3,9-Diazabicyclo[3.3.1]nonan-3-yl)-4-methyl-7-(thiazol-2-yl)benzo[d]oxazole], the IC50 was below 100 nM. As for `FC(F)(F)Oc1ccc(-c2nccs2)c2oc(N3CC4CCC(C3)N4)nc12` [Example 28, 2-(3,8-Diazabicyclo[3.2.1]octan-3-yl)-7-(thiazol-2-yl)-4-(trifluoromethoxy)benzo[d]oxazole], the IC50 is below 100 nM. On to `FC(F)(F)Oc1ccc(-c2nccs2)c2oc(N3CC4CCCC(C3)N4)nc12` [Example 30, 2-(3,9-Diazabicyclo[3.3.1]nonan-3-yl)-7-(thiazol-2-yl)-4-(trifluoromethoxy)benzo[d]oxazole], for which the IC50 was below 100 nM. Consider `FC(F)(F)c1ccc(-c2nccs2)c2oc(N3CC4CCC(C3)N4)nc12` [Example 31, 2-(3,8-Diazabicyclo[3.2.1]octan-3-yl)-7-(thiazol-2-yl)-4-(trifluoromethyl)benzo[d]oxazole], for which the IC50 is below 100 nM. As to `FC(F)(F)c1ccc(-c2nccs2)c2oc(N3CC4CC(C3)N4)nc12` [Example 32, 2-(3,6-Diazabicyclo[3.1.1]heptan-3-yl)-7-(thiazol-2-yl)-4-(trifluoromethyl)benzo[d]oxazole], the IC50 was below 100 nM. `FC(F)(F)c1ccc(-c2nccs2)c2oc(N3CC4CCCC(C3)N4)nc12` [Example 33, 2-(3,9-Diazabicyclo[3.3.1]nonan-3-yl)-7-(thiazol-2-yl)-4-(trifluoromethyl)benzo[d]oxazole]: the IC50 was below 100 nM. `CC(=O)Nc1ccc(-c2nccs2)c2oc(N3CC4CCCC(C3)N4)nc12` [Example 34, N-(2-(3,9-Diazabicyclo[3.3.1]nonan-3-yl)-7-(thiazol-2-yl)benzo[d]oxazol-4-yl)acetamide]: the IC50 was below 100 nM. In the case of `CC(=O)Nc1ccc(-c2nccs2)c2oc(N3CC4CC(C3)N4)nc12` [Example 35, N-(2-(3,6-diazabicyclo[3.1.1]heptan-3-yl)-7-(thiazol-2-yl)benzo[d]oxazol-4-yl)acetamide], the IC50 lay in the range of 100 to 1000 nM. For `Clc1ccc(-c2nccs2)c2oc(N3CC4CCC(C3)N4)nc12` [Example 36, 2-(3,8-Diazabicyclo[3.2.1]octan-3-yl)-4-chloro-7-(thiazol-2-yl)benzo[d]oxazole], the IC50 is below 100 nM. On to `Clc1ccc(-c2nccs2)c2oc(N3CC4CC(C3)N4)nc12` [Example 37, 2-(3,6-Diazabicyclo[3.1.1]heptan-3-yl)-4-chloro-7-(thiazol-2-yl)benzo[d]oxazole], for which the IC50 was below 100 nM. Regarding `Clc1ccc(-c2nccs2)c2oc(N3CC4CCCC(C3)N4)nc12` [Example 38, 2-(3,9-Diazabicyclo[3.3.1]nonan-3-yl)-4-chloro-7-(thiazol-2-yl)benzo[d]oxazole], the IC50 was below 100 nM.
